Tests used:
PWS-IC = test: Bisulfite genomic sequencing of PWS-IC, human PWS cells; format: cell-based
Method: Genomic DNA was isolated from human PWS fibroblasts or mouse tissues. DNA (1 μg) was then treated by bisulfite using the Epi-Tect bisulfite kit (Qiagen), and 125 ng input DNA was used per PCR amplification. PCR products were sub-cloned into pGEM-T easy vector (Promega) and an average of 15 clones were sequenced. DNA sequencing results were analyzed using BISMA web-based analysis platform with a setting for individual clones with <95% bisulfite conversion and <90% sequence identity to be excluded in the analysis.

human PWS fibroblasts = test: Chromatin immunoprecipitation (ChIP-qPCR) of H3K9me2/H3K9me3; format: cell-based; settings: in words
Method: Histone methylations on the SNRPN locus in human fibroblasts were analyzed by chromatin immunoprecipitation assay (ChIP) using the protocol as previously reported (see Fulmer-Smentek et al., Human molecular genetics 10, 645-652 (2001)). ChIP assay was performed using ChIP-IT Express magnetic kit (Active Motif) according to the manufacturer's instructions with modification for the fixation and reverse-crosslinking steps. Briefly, native chromatin was prepared without fixation and enzymatic digestions to average 150-500 bp sized chromatin. 20 μg of chromatin was added to the specific antibodies (2 μg) or species control isotype antibodies for each immunoprecipitation reaction. The antibody-chromatin complexes were bound to protein G magnetic beads for recovering chromatin immunoprecipitates. RNase- and proteinase K-treated DNA was purified using PCR purification columns (Promega). DNA recovery was quantified by real time PCR performed on the LightCycler480 instrument (Roche) using SsoAdvanced Universal SYBR green Supermix (Biorad). Antibodies were anti-rabbit acetylated H3 (Millipore 06-599), anti-mouse monoclonal Histone H3 dimethyl K9 (Abcam 1220) and Histone H3 trimethyl K9 (Millipore, 07-442) antibodies. qPCR reactions were performed with the following cycling parameters: at 95° C./5 min followed by 40 cycles of 95° C./30 sec, 60° C./60 sec. Data was normalized to the total input.

maternal Snrpn-EGFP MEFs = test: High content screening / concentration response of Snrpn-EGFP unsilencing; format: cell-based, mouse; settings: mS-EGFP/p+ MEFs
Method: High content screenings of small molecules were performed as described in Huang, et al. Nature 481, 185-189 (2012). HCS comprises a 384-well high-content screen using primary mouse embryonic fibroblasts (MEFs) from m^S-EGFP/p^+, and searched for drug-like molecules that could unsilence the maternal S-EFGP allele. […] To perform the screen, primary MEFs were isolated from E12.5-14.5 embryos of m^S-EGFP/p^+ and cultured for 7 days in Dulbecco's modified Eagle's media supplemented with 10% fetal bovine serum, 100 Units/mL penicillin and 100 μg/mL streptomycin, at 37° C. and 5% CO2. One day before treatment with small molecules, 5,000 cells per well were plated onto 384-well plates. The cells were then treated with compounds (10 μM for 72 hours) from multiple small molecule libraries (FIG. 1f and FIG. 2). In total, 9,157 small molecules were screened in quadruplicate, normalizing values to vehicle-treatment (0.2% DMSO) (Table 1). The unsilencing of Snrpn-EGFP was determined three days after drug treatment. The immunofluorescence-processed fibroblasts were imaged for Hoechst and Alexa Fluor 488 fluorescence using a BD Pathway 855 high content imaging microscope. Antibody-enhanced Snrpn-EGPF fluorescence intensity was determined in drug-treated cells individually and normalized to cells treated with vehicle control. In order to identify potentially active compounds, an arbitrary cutoff of 125% was used where 100% indicates basal fluorescence in the vehicle-treated MEFs. Analysis was performed using Cell Profiler with custom macro and algorithms. Potential active drugs were defined as the increase in drug-mediated EGFP fluorescence consistently observed across quadruplicate wells and minimal or no cytotoxicity measured by Hoechst-stained nuclear structure (and the changes in total number of cells). After initial validation of all potential active drugs (e.g., to determine whether active compounds show inherent fluorescence, the wild-type fibroblasts were also treated), only effective hit compounds further validated in dose-response tests to determine relative efficacy (Emax) and potency (EC50). The dose-response results were analyzed by using Graphpad Prism (Graphpad Software). The calculated EC50 values (potencies) and estimated Emax (efficacy, Y-value top plateau) enabled comparative analyses of the relative potency and efficacy of the identified compounds.
Three days after drug treatment, the cells were fixed at 4% paraformaldehyde at room temperature for 10 min, followed by rinsing with 1× PBS. The cells were permeabilized with 0.5% Triton X-100 in 1× PBS at room temperature for 10 min, followed by blocking with 5% normal goat serum in 0.1% Triton X-100 in 1× PBS at room temperature for 30 minutes. Primary rabbit anti-GFP antibody (1:1000, Novus Biologicals cat. no. NB100-1770) was incubated at 4° C. overnight. The next day, the cells were rinsed with 1× PBS and incubated with goat anti-rabbit Alexa Fluor 488 (Invitrogen cat. no. A-11008) and Hoechst at room temperature. One hour after incubation, the cells were rinsed with 1× PBS and imaged for Hoechst and Alexa Fluor 488 fluorescence using a BD Pathway 855 high content imaging microscope.
It is not feasible to design a screen for noncoding RNA. Alternatively, SNRPN/Snprn is paternally expressed but maternally silenced in all human and mouse tissues. The allele-specific expression of human SNRPN is regulated by the PWS-IC, which also controls the expression of host transcripts for SnoRNAs, including the SNORD116 cluster between SNRPN and UBE3A. see Le Meur, E. et al., Dev. Biol. 286, 587-600 (2005). Thus, the Snrpn-EGFP fusion protein (hereafter S-EGFP) was used as a marker for high content screening (HCS). It was determined that small molecules that can unsilence S-EGFP would also be effective in reactivating the host transcript of SNORD116. […]

SMILES | DNA methylation of the PWS-IC (PWS-IC) | level of H3K9me2 (and H3K9me3) in the PWS-IC (human PWS fibroblasts) | activation of S-EGFP (maternal Snrpn-EGFP MEFs)
Nc1ncn([C@H]2C[C@H](O)[C@@H](CO)O2)c(=O)n1 [5-Aza-dC, 5-aza deoxycytidine, reference compound] | significantly decreased | reduced | 
COc1cc2nc(N3CCCN(C)CC3)nc(NC3CCN(Cc4ccccc4)CC3)c2cc1OC [BIX01294, reference compound] |  |  | did not have a substantial effect
C[S+](CC[C@H](N)C(=O)O)C[C@H]1O[C@@H](n2cnc3c(N)ncnc32)[C@H](O)[C@@H]1O (some centres unmarked) [S-adenosyl-methionine, reference compound] |  |  | did not have an effect
Nc1ccccc1NC(=O)c1ccc(CNC(=O)OCc2cccnc2)cc1 [entinostat, reference compound] |  |  | did not have an effect
CC(/C=C/C(=O)NO)=C\[C@@H](C)C(=O)c1ccc(N(C)C)cc1 [trichostatin A, reference compound] |  |  | did not have an effect
CCCC(CCC)C(=O)O [valproic acid, reference compound] |  |  | did not have an effect
O=C(CCCCCCC(=O)Nc1ccccc1)NO [vorinostat, suberoylanilide hydroxamic acid, reference compound] |  |  | did not have an effect
